Measurements: patent publication EP0403591B1, “CRF ANALOGS” (THE SALK INSTITUTE FOR BIOLOGICAL STUDIES, priority 1988, dated 1994)
pEC50: −log10 of the molar value. Entries after “also recorded” stand apart in the source; their conditions may differ. Non-standard residues stand in square brackets, D forms with d. Residues, ends and D or L forms follow the SMILES beside them. No end group written: not given here. *: point of attachment. Nle = CCCC[C@H](N)C(=O)O; Bz = O=C(c1ccccc1)*

Key:
[1] = Lowering of blood pressure (in vivo testing, general procedure of Example III); conditions: testing by the general procedure of Example III
[2] = test system: cultured rat pituitary cells; test: Secretion of ACTH and β-endorphin by cultured rat pituitary cells (procedure of Example III); format: cell-based; conditions: for secretion of ACTH and β-END-LI: testing by the general procedure of Example III (in vitro and in vivo); for pEC50: stimulation of secretion of ACTH and β-endorphin by cultured rat pituitary cells, read-out: Half-maximal responses (concentration)
Description: The synthetic peptide from Example I and synthetic oCRF are examined for their effects on the secretion of ACTH and β-endorphin in vitro and also in vivo.
The potency of synthetic oCRF to stimulate the secretion of ACTH and β-endorphin by cultured rat pituitary cells is measured using the procedure as generally set forth in Endocrinology, 91, 562 (1972). Half-maximal responses are observed at concentrations of the peptide very substantially less than the synthetic oCRF concentrations of about 250 picomolar which are needed to achieve this response. In vivo testing is carried out using the general procedure set forth in C. Rivier et al., Science, 218, 377 (1982), and biological potency is ascertained.

ACTH and β-endorphin = conditions: background statement; in vitro and in vivo; cited from earlier work
[3] = background statement; in mammals; cited from earlier work
[4] = administered into the ventricles, rats; cited from earlier work
[5] = background statement; cited from earlier work

Compound | lowering of blood pressure [1] | secretion of ACTH and β-END-LI [2] | also measured
SQ[dY]PPISLDLTFHLLRE[Nle]LH[Nle]AKAGQEAEQAALNRLLLEEA-NH2 [XII] | very significant lowering of blood pressure | stimulates the secretion of ACTH and β-END-LI | 
SEEPPISLDLTFHLLREVLHMARAEQLAQQAHSNRKLMEII-NH2 [Example I, [His²⁰]-rCRF] |  |  | pEC50 [2]: > 9.60
Bz-GEEPPISLDLT[Nle]HLLREVLHMARAEQLAQQAHSNRRLMEII-NH2 [VI, [Benzoyl-Gly¹, Nle¹², His²⁰, Arg³⁶]-rCRF] | very significant lowering of blood pressure | stimulates the secretion of ACTH and β-END-LI | 
CCCC[C@H](NC(=O)[C@H](Cc1c[nH]cn1)NC(=O)[C@H](CC(C)C)NC(=O)[C@H](CCCC)NC(=O)[C@H](CCC(=O)O)NC(=O)[C@H](CCCNC(=N)N)NC(=O)[C@H](CC(C)C)NC(=O)[C@H](CC(C)C)NC(=O)[C@H](Cc1c[nH]cn1)NC(=O)[C@H](Cc1ccccc1)NC(=O)[C@@H](NC(=O)[C@H](CC(C)C)NC(=O)[C@H](CC(=O)O)NC(=O)[C@H](CC(C)C)NC(=O)[C@H](CO)NC(=O)[C@@H](NC(=O)[C@@H]1CCCN1C(=O)[C@@H]1CCCN1)[C@@H](C)CC)[C@@H](C)O)C(=O)N[C@@H](C)C(=O)N[C@@H](CCCNC(=N)N)C(=O)N[C@@H](C)C(=O)N[C@@H](CCC(=O)O)C(=O)N[C@@H](CCC(N)=O)C(=O)N[C@@H](CCC(=O)O)C(=O)N[C@@H](C)C(=O)N[C@@H](CCC(=O)O)C(=O)N[C@@H](CCC(N)=O)C(=O)N[C@@H](C)C(=O)N[C@@H](CC(C)C)C(=O)N[C@@H](CC(C)C)C(=O)N[C@@H](CC(N)=O)C(=O)N[C@@H](CCCNC(=N)N)C(=O)N[C@@H](CC(N)=O)C(=O)N[C@@H](CC(C)C)C(=O)N[C@@H](CC(C)C)C(=O)N[C@@H](CCC(=O)O)C(=O)N[C@@H](CCC(=O)O)C(=O)N[C@@H](C)C(N)=O [XVII] (H-PPISLDLTFHLLRE[Nle]LH[Nle]ARAEQEAEQALLNRNLLEEA-NH2) | very significant lowering of blood pressure | stimulates the secretion of ACTH and β-END-LI | 
SQEPPISLDLTFHLLREVLHMTKADQLAQQAHSNRNLLDIA-NH2 [XIV, [His²⁰, Asn³⁶]-oCRF] | very significant lowering of blood pressure | stimulates the secretion of ACTH and β-END-LI | 
SEEPPISLDLTFHLLREVLHRARAEQLAQQALINRKLMEII-NH2 [IX, [His²⁰, Arg²¹, Leu³², Ile³³]-rCRF] | very significant lowering of blood pressure to a greater extent than rCRF | stimulates the secretion of ACTH and β-END-LI | 
SEEPPISLELTFHLLREVLH[Nle]ARAEQLAEQAHINRKLMEII-NH2 [V, [Glu⁹, His²⁰, Nle²¹, Glu²⁹, Ile³³]-rCRF] | very significant lowering of blood pressure to a greater extent than rCRF | stimulates the secretion of ACTH and β-END-LI | 
Sauvagine |  |  | secretion of ACTH and β-endorphin (ACTH and β-endorphin): stimulating the secretion of ACTH and β-endorphin; lowering blood pressure [3]: biological activity in lowering blood pressure
Rat CRF (SEEPPISLDLTFHLLREVLEMARAEQLAQQAHSNRKLMEII; ends and bridges not checked; UniProt P01143 145-185, looked up) [rCRF, hentetracontapeptide; formula of human CRF is the same as that of rCRF] |  |  | secretion of ACTH and β-endorphin (ACTH and β-endorphin): stimulate ACTH and β-endorphin activities in vitro and in vivo; lowering blood pressure [3]: substantially lower blood pressure for an extended time period
SQEPPISLDLTFHLLRE[Nle]LH[Nle]AKAEQEAEQAALNRLLLEEA-NH2 [XI] | very significant lowering of blood pressure | stimulates the secretion of ACTH and β-END-LI | 
SQEPPISLDLTFHMLREMLHMAKMEQEAEQAALNRLLLEEA-NH2 [XVIII] | very significant lowering of blood pressure | stimulates the secretion of ACTH and β-END-LI | 
CRF: corticotropin releasing factor, species not specified (SEEPPISLDLTFHLLREVLEMARAEQLAQQAHSNRKLMEII; ends and bridges not checked; UniProt P06850 154-194, looked up) |  |  | activity and learning performance [4]: increases activity and improves learning performance
[D-Pro⁴, His²⁰]-oCRF(4-41) [XVI] | very significant lowering of blood pressure | stimulates the secretion of ACTH and β-END-LI | 
CC[C@H](C)[C@H](NC(=O)[C@H](CC(=O)O)NC(=O)[C@H](CC(C)C)NC(=O)[C@H](CC(C)C)NC(=O)[C@H](CCCCN)NC(=O)[C@H](CCCNC(=N)N)NC(=O)[C@H](CC(N)=O)NC(=O)[C@H](CO)NC(=O)[C@H](Cc1c[nH]cn1)NC(=O)[C@H](C)NC(=O)[C@H](CCC(N)=O)NC(=O)[C@H](CCC(N)=O)NC(=O)[C@H](C)NC(=O)[C@H](CC(C)C)NC(=O)[C@H](CCC(N)=O)NC(=O)[C@H](CC(=O)O)NC(=O)[C@H](C)NC(=O)[C@H](CCCCN)NC(=O)[C@@H](NC(=O)[C@H](CCSC)NC(=O)[C@H](CCC(=O)O)NC(=O)[C@H](CC(C)C)NC(=O)[C@@H](NC(=O)[C@H](CCC(=O)O)NC(=O)[C@H](CCCNC(=N)N)NC(=O)[C@H](CC(C)C)NC(=O)[C@H](CC(C)C)NC(=O)[C@H](Cc1c[nH]cn1)NC(=O)[C@H](Cc1ccccc1)NC(=O)[C@@H](NC(=O)[C@H](CC(C)C)NC(=O)[C@H](CC(=O)O)NC(=O)[C@H](CC(C)C)NC(=O)[C@H](CO)NC(=O)[C@@H](NC(=O)[C@@H]1CCCN1C(=O)[C@@H]1CCCN1C(=O)[C@H](CCC(=O)O)NC(=O)[C@H](CCC(N)=O)NC(=O)[C@@H](N)CO)[C@@H](C)CC)[C@@H](C)O)C(C)C)[C@@H](C)O)C(=O)N[C@@H](C)C(N)=O [oCRF, ovine CRF] |  |  | pEC50 [2]: ~9.60; secretion of ACTH and β-endorphin (ACTH and β-endorphin): stimulating the secretion of ACTH and β-endorphin; also recorded: stimulate ACTH and β-endorphin activities in vitro and in vivo; gastric acid production [5]: inhibits gastric acid production; lowering blood pressure [3]: biological activity in lowering blood pressure; also recorded: substantially lower blood pressure for an extended time period
SQEPPISLDLTFHLLREMLHRAKAEQEAEQAAINRLLLEEA-NH2 [XIX] | very significant lowering of blood pressure | stimulates the secretion of ACTH and β-END-LI | 
SEEPPISLDLTFHLLREVLHMARAEGLAQQAHSNRKLMEII-NH2 [IV, [His²⁰, Gly²⁶)-rCRF] | very significant lowering of blood pressure | stimulates the secretion of ACTH and β-END-LI | 
SQEPPISLELTFHLLRE[Nle]LHRAKAEQEAEQAALNRLLLEEA-NH2 [X] | very significant lowering of blood pressure | stimulates the secretion of ACTH and β-END-LI | 
SQEPPISLDLTFHMLREMLHRAKMEGEAEQALINRNLLEEA-NH2 [XIII] | very significant lowering of blood pressure | stimulates the secretion of ACTH and β-END-LI | 
SQEPPISLDLTFHLLREVLH[Nle]TKADQLAQQAHSNRKLLDIA-NH2 [XV, [His²⁰, Nle²¹]-oCRF] | very significant lowering of blood pressure | stimulates the secretion of ACTH and β-END-LI | 
SEEPPISLDLTFHLLREVLH[Nle]ARAEQLAQQALINRKLMEEI-NH2 [VIII, [His²⁰, Nle²¹, Leu³², Ile³³, Glu⁴⁰]-rCRF] | very significant lowering of blood pressure to a greater extent than rCRF | stimulates the secretion of ACTH and β-END-LI | 
Ac-PPISLDLTFHLLREVLHMARAEQLAEQAHSNRNLMEEI-NH2 [VII, [Acetyl-Pro⁴, His²⁰, Glu^29,40, Asn³⁶]-rCRF(4-41)] | very significant lowering of blood pressure to a greater extent than rCRF | stimulates the secretion of ACTH and β-END-LI | 
